The NIST ThermoML archive (doi:10.1021/acs.jced.6b00232)
Numbers after ± are expanded uncertainties.

Experiment: mn = molality of the nth substance listed, in mol/kg
Details: 84.5 kPa, Liquid; for speed of sound: Frequency=3 MHz, Sing-around technique in a fixed-path interferometer; for mass density: Vibrating tube method

O=C(CO)[C@@H](O)[C@H](O)[C@H](O)CO [D-fructose] + O
Details	mass density, 288.15 K [kg/m3]	mass density, 293.15 K [kg/m3]	mass density, 298.15 K [kg/m3]	mass density, 303.15 K [kg/m3]	mass density, 308.15 K [kg/m3]	speed of sound, 288.15 K [m/s]	speed of sound, 293.15 K [m/s]	speed of sound, 298.15 K [m/s]	speed of sound, 303.15 K [m/s]	speed of sound, 308.15 K [m/s]
m1 = 0.1716	–	–	1008.73 ± 0.3	–	–	1478.9 ± 1.2	1494.4 ± 1.2	1508 ± 1.2	1519.8 ± 1.2	1529.9 ± 1.2
m1 = 0.2312	1015.03 ± 0.3	1013.99 ± 0.3	1012.69 ± 0.3	–	1009.43 ± 0.3	1483.2 ± 1.2	1498.5 ± 1.2	1511.8 ± 1.2	–	1533.4 ± 1.2
m1 = 0.292	1019.08 ± 0.3	1018 ± 0.3	1016.66 ± 0.3	1015.1 ± 0.3	1013.34 ± 0.3	1487.5 ± 1.2	–	1515.7 ± 1.2	1527.1 ± 1.2	1536.9 ± 1.2
m1 = 0.4825	1031.39 ± 0.3	1030.21 ± 0.3	1028.76 ± 0.3	1027.1 ± 0.3	1025.25 ± 0.3	1500.9 ± 1.2	1515.3 ± 1.2	–	–	1547.8 ± 1.2
m1 = 0.6161	1039.7 ± 0.3	1038.45 ± 0.3	1036.93 ± 0.3	1035.21 ± 0.3	1033.29 ± 0.3	1510.2 ± 1.2	1524.1 ± 1.2	1536.2 ± 1.2	1546.5 ± 1.2	1555.3 ± 1.2
m1 = 0.9787	1061.06 ± 0.31	1059.67 ± 0.31	1057.92 ± 0.31	1056.02 ± 0.31	1053.95 ± 0.31	1534.7 ± 1.2	1547.5 ± 1.3	1558.4 ± 1.3	1567.7 ± 1.3	1575.5 ± 1.3
m1 = 1.386	1083.13 ± 0.31	1081.5 ± 0.31	1079.62 ± 0.31	1077.55 ± 0.31	1075.32 ± 0.31	1561.6 ± 1.3	1572.9 ± 1.3	1582.5 ± 1.3	1590.7 ± 1.3	1597.3 ± 1.3
m1 = 1.851	1106.02 ± 0.32	1104.26 ± 0.32	1102.2 ± 0.32	1099.94 ± 0.32	1097.55 ± 0.32	1588.9 ± 1.3	1599.1 ± 1.3	1607.5 ± 1.3	1614.3 ± 1.3	1619.9 ± 1.3
m1 = 2.379	1129.63 ± 0.32	1127.76 ± 0.32	1125.52 ± 0.32	1123.09 ± 0.32	1120.53 ± 0.32	1622.1 ± 1.3	1630.8 ± 1.3	1637.6 ± 1.3	1643 ± 1.3	1647.2 ± 1.3
m1 = 2.981	1153.68 ± 0.33	1151.66 ± 0.33	1149.24 ± 0.33	1146.65 ± 0.33	1143.92 ± 0.33	1655.5 ± 1.3	1662.7 ± 1.3	1668 ± 1.3	1671.9 ± 1.3	1674.7 ± 1.3
m1 = 3.667	1178.12 ± 0.34	1175.94 ± 0.34	1173.34 ± 0.34	1170.58 ± 0.34	1167.69 ± 0.34	1691 ± 1.4	1696.5 ± 1.4	1700.1 ± 1.4	1702.5 ± 1.4	1703.9 ± 1.4

O=C[C@H](O)[C@@H](O)[C@H](O)[C@H](O)CO [D-glucose] + O
Details	mass density, 288.15 K [kg/m3]	mass density, 293.15 K [kg/m3]	mass density, 298.15 K [kg/m3]	mass density, 303.15 K [kg/m3]	mass density, 308.15 K [kg/m3]	speed of sound, 288.15 K [m/s]	speed of sound, 293.15 K [m/s]	speed of sound, 298.15 K [m/s]	speed of sound, 303.15 K [m/s]	speed of sound, 308.15 K [m/s]
m1 = 0.2921	1018.67 ± 0.3	1017.62 ± 0.3	1016.34 ± 0.3	1014.83 ± 0.3	1013.12 ± 0.3	–	1501 ± 1.2	1514.3 ± 1.2	1526 ± 1.2	1535.9 ± 1.2
m1 = 0.4836	1030.78 ± 0.3	1029.64 ± 0.3	1028.28 ± 0.3	1026.7 ± 0.3	1024.93 ± 0.3	1498.4 ± 1.2	1513 ± 1.2	1525.9 ± 1.2	1537.1 ± 1.2	1546.6 ± 1.2
m1 = 0.6164	1038.85 ± 0.3	1037.66 ± 0.3	1036.24 ± 0.3	1034.62 ± 0.3	1032.81 ± 0.3	1507 ± 1.2	1521.3 ± 1.2	1533.9 ± 1.2	1544.7 ± 1.2	1554 ± 1.2
m1 = 0.9795	1059.74 ± 0.31	1058.4 ± 0.31	1056.86 ± 0.31	1055.12 ± 0.31	1053.22 ± 0.31	1530.3 ± 1.2	–	1555.2 ± 1.2	1565.2 ± 1.2	1573.6 ± 1.2
m1 = 1.388	1081.24 ± 0.31	1079.76 ± 0.31	1078.09 ± 0.31	1076.24 ± 0.31	1074.24 ± 0.31	1555.6 ± 1.2	1567.8 ± 1.2	1578.4 ± 1.2	1587.4 ± 1.2	1595 ± 1.2
m1 = 1.85	1103.58 ± 0.31	1101.95 ± 0.31	1100.14 ± 0.31	1098.18 ± 0.31	1096.07 ± 0.31	1583.6 ± 1.2	1594.7 ± 1.2	1604.2 ± 1.3	1612.2 ± 1.3	1618.8 ± 1.3
m1 = 2.379	1126.54 ± 0.31	1124.77 ± 0.31	1122.85 ± 0.31	1120.79 ± 0.31	1118.58 ± 0.31	1613.6 ± 1.3	1623.3 ± 1.3	1631.7 ± 1.3	1638.6 ± 1.3	1644.3 ± 1.3
m1 = 2.989	1150.24 ± 0.32	1148.34 ± 0.32	1146.3 ± 0.32	1144.14 ± 0.32	1141.85 ± 0.32	1646 ± 1.3	1654.4 ± 1.3	1661.4 ± 1.3	1667.2 ± 1.3	1671.8 ± 1.3
m1 = 3.7	1174.74 ± 0.32	1172.71 ± 0.32	1170.56 ± 0.32	1168.3 ± 0.32	1165.92 ± 0.32	1681.2 ± 1.3	1688 ± 1.3	1693.8 ± 1.3	1698.3 ± 1.3	1701.8 ± 1.3

OC[C@H]1O[C@@](CO)(O[C@H]2O[C@H](CO)[C@@H](O)[C@H](O)[C@H]2O)[C@@H](O)[C@@H]1O [D-sucrose] + O
Details	mass density, 288.15 K [kg/m3]	mass density, 293.15 K [kg/m3]	mass density, 298.15 K [kg/m3]	mass density, 303.15 K [kg/m3]	mass density, 308.15 K [kg/m3]	speed of sound, 288.15 K [m/s]	speed of sound, 293.15 K [m/s]	speed of sound, 298.15 K [m/s]	speed of sound, 303.15 K [m/s]	speed of sound, 308.15 K [m/s]
m1 = 0.09036	1010.86 ± 0.3	1009.89 ± 0.3	1008.67 ± 0.3	1007.22 ± 0.3	1005.55 ± 0.3	1475.4 ± 1.2	1491.1 ± 1.2	1504.9 ± 1.2	1516.9 ± 1.2	1527.3 ± 1.2
m1 = 0.1217	1014.83 ± 0.3	1013.84 ± 0.3	1012.59 ± 0.3	1011.12 ± 0.3	1009.43 ± 0.3	1478.5 ± 1.2	1494 ± 1.2	1507.7 ± 1.2	1519.6 ± 1.2	1529.8 ± 1.2
m1 = 0.1537	1018.82 ± 0.3	1017.8 ± 0.3	1016.53 ± 0.3	1015.04 ± 0.3	1013.34 ± 0.3	1481.6 ± 1.2	1497 ± 1.2	1510.6 ± 1.2	1522.3 ± 1.2	1532.5 ± 1.2
m1 = 0.2538	1030.98 ± 0.31	1029.88 ± 0.31	1028.55 ± 0.31	1027 ± 0.31	1025.25 ± 0.31	1491.5 ± 1.2	1506.4 ± 1.2	1519.5 ± 1.3	1530.9 ± 1.3	1540.7 ± 1.3
m1 = 0.3245	1039.25 ± 0.31	1038.1 ± 0.31	1036.73 ± 0.31	1035.14 ± 0.31	1033.35 ± 0.31	1498.3 ± 1.3	1513 ± 1.3	1525.8 ± 1.3	1537 ± 1.3	1546.5 ± 1.3
m1 = 0.5156	1060.41 ± 0.31	1059.13 ± 0.31	1057.64 ± 0.31	1055.96 ± 0.31	1054.09 ± 0.31	1516.8 ± 1.3	1530.7 ± 1.3	1542.8 ± 1.3	1553.2 ± 1.3	1562 ± 1.3
m1 = 0.729	1082.25 ± 0.32	1080.85 ± 0.32	1079.25 ± 0.32	1077.46 ± 0.32	1075.5 ± 0.32	1537.3 ± 1.3	1550.2 ± 1.3	1561.5 ± 1.3	1571.1 ± 1.3	1579.2 ± 1.3
m1 = 0.9736	1105.1 ± 0.34	1103.56 ± 0.34	1101.84 ± 0.34	1099.96 ± 0.34	1097.9 ± 0.34	1559.9 ± 1.4	1571.9 ± 1.4	1582.2 ± 1.4	1591 ± 1.4	1598.4 ± 1.4
m1 = 1.252	1128.74 ± 0.36	1127.07 ± 0.36	1125.24 ± 0.36	1123.25 ± 0.36	1121.11 ± 0.36	1585.2 ± 1.4	1596.1 ± 1.4	1605.4 ± 1.4	1613.3 ± 1.4	1619.7 ± 1.4
m1 = 1.573	1153.12 ± 0.39	1151.33 ± 0.39	1149.38 ± 0.39	1147.28 ± 0.39	1145.06 ± 0.39	1613 ± 1.5	1622.7 ± 1.5	1630.9 ± 1.5	1637.7 ± 1.5	1643.2 ± 1.5
m1 = 1.948	1178.48 ± 0.43	1176.55 ± 0.43	1174.48 ± 0.42	1172.29 ± 0.42	1169.98 ± 0.42	1643.8 ± 1.5	1652.1 ± 1.5	1659.1 ± 1.5	1664.8 ± 1.5	1669.3 ± 1.5
